Experimental data: patent US20250262315A1 (priority 2021, published 2025)
One block for each substance: values may come before it.

Columns and labels:
human cathepsin G [1] = experiment: human cathepsin G in tris-buffered saline (TBS, pH 7.4); conditions: 37° C., up to 24 h
[2] = Pooled healthy human plasma; conditions: 37° C., up to 96 h
[3] = system: Human neutrophil elastase; experiment: human neutrophil elastase in tris-buffered saline (TBS, pH 7.4); conditions: 37° C., up to 24 h
monkey cynomolgus plasma = conditions: 37° C., up to 96 h
human proteinase 3 [4] = experiment: human proteinase 3 in tris-buffered saline (TBS, pH 7.4); conditions: 37° C., up to 24 h
[5] = molecular target: T1, human neutrophil elastase (Homo sapiens, UniProt P08246); experiment: Human neutrophil protease-mediated cleavage assay using pyrene probes: neutrophil elastase; type: biochemical; conditions: 37° C.; for stability against human neutrophil elastase-mediated degradation (in words): pyrene probes; for stability against degradation mediated by neutrophil elastase or mouse plasma (in words): additional probes; for % intact probe, Neutrophil elastase: after incubation for 24 h, n = 2, mean ± SEM
T1 construct: purchased MilliporeSigma
T1 sequence (P08246 30-267): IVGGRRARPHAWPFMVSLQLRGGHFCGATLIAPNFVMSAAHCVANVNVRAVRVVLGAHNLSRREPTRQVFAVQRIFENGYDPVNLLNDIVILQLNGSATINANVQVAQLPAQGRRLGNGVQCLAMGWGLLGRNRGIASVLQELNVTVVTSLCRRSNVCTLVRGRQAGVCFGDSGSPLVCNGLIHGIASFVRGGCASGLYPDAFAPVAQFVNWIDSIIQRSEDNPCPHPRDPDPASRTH
Method: (§1) Human neutrophil protease-mediated cleavage assay using pyrene probes. Each test compound (10 mM in DMSO, 2 μL) was mixed with 97 μL of tris-buffered saline (TBS, pH 7.4) and 1 μL of 1-pyrenemethylamine (10 mM in DMSO, internal standard). The mixture was incubated at 37° C. for 10 min. Human neutrophil elastase (40 ng μL^−1, 20 μL in TBS, MilliporeSigma), human proteinase 3 (250 ng μL^−1, 5 μL in TBS, MilliporeSigma) or human cathepsin G (330 ng μL^−1, 5 μL in TBS, MilliporeSigma) was added to the test compound mixture in 1:1 volume ratio, followed by incubation at 37° C. Aliquots (5 μL) were collected at each time point (0, 1, 3, 6, and 24 h for elastase; 0 and 24 h for proteinase 3 and cathepsin G). Cold acetonitrile containing 1% formic acid (25 μL) was added to precipitate proteins. The mixture was then kept at −20° C. for 30 min. Precipitated proteins were pelleted by centrifugation (15,000×g, 4° C., 30 min) and supernatant of each sample was analyzed for quantification by analytical HPLC (UV absorbance at 342 nm). The amount of each probe was normalized to the peak area of the internal standard. All assays were performed at least three times in technical duplicate, and data shown are representative of the replicates.

[6] = Plasma stability test using pyrene probes, BALB/c mouse plasma; type: in vitro ADME; conditions: 37° C.; for stability in undiluted BALB/c plasma (in words): pyrene probes; for % intact probe, 48 h incubation, Mouse / % intact probe, 96 h incubation, Mouse: undiluted mouse plasma; for % intact probe, 96 h incubation, Mouse: 96 h (4-day)
Method: (§2) Plasma stability test using pyrene probes. Each test compound (10 mM in DMSO, 2 μL) was mixed with 1 μL of 1-pyrenemethylamine (10 mM in DMSO, internal standard) and incubated at 37° C. for 10 min. Pooled healthy human plasma, monkey cynomolgus plasma or BALB/c mouse plasma (197 μL, Innovative Research) was added to the mixture, followed by incubation at 37° C. Aliquots (5 μL) were collected at each time point (0, 48, and 96 h for human and monkey cynomolgus plasma; 0, 1, 6, 24, 48, and 96 h for BALB/c mouse plasma) and 25 μL of cold acetonitrile containing 1% formic acid was added to precipitate proteins. The mixture was then kept at −20° C. for 30 min. Precipitated proteins were separated by centrifugation (15,000×g, 4° C., 30 min) and supernatant of each sample was obtained and analyzed for quantification by analytical HPLC as described above. All assays were performed at least three times in technical duplicate, and data shown are representative of the replicates.

human proteinase 3 [7] = molecular target: T2, human proteinase 3 (Homo sapiens, UniProt P24158); experiment: Human neutrophil protease-mediated cleavage assay using pyrene probes: proteinase 3; type: biochemical; conditions: for % intact probe, Proteinase 3: after incubation for 24 h, 37° C., n = 2, mean ± SEM; for resistance to cleavage by human proteinase 3 (in words): pyrene probes
T2 construct: purchased MilliporeSigma
T2 sequence (P24158 28-248): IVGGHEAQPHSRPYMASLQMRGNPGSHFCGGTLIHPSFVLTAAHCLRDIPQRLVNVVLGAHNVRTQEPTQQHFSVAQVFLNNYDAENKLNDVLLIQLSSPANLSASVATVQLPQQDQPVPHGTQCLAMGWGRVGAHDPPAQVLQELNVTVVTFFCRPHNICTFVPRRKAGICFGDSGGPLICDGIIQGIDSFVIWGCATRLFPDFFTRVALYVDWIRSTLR
Method: as §1

human cathepsin G [8] = molecular target: T3, human cathepsin G (Homo sapiens, UniProt P08311); experiment: Human neutrophil protease-mediated cleavage assay using pyrene probes: cathepsin G; type: biochemical; conditions: for % intact probe, Cathepsin G: after incubation for 24 h, 37° C., n = 2, mean ± SEM
T3 construct: purchased MilliporeSigma
T3 sequence (P08311 21-244): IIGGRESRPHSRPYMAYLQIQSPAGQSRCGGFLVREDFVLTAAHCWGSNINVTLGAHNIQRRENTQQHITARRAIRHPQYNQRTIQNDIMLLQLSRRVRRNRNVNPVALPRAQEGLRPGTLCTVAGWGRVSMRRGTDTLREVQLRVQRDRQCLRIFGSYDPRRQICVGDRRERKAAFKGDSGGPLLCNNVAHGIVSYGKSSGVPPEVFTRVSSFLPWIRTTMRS
Method: as §1

[9] = Plasma stability test using pyrene probes, human plasma; type: in vitro ADME; conditions: for % intact probe, 48 h incubation, Human / % intact probe, 96 h incubation, Human: undiluted human plasma, 37° C.
Method: as §2

[10] = Plasma stability test using pyrene probes, monkey plasma; type: in vitro ADME, cynomolgus monkey; conditions: for % intact probe, 48 h incubation, Monkey / % intact probe, 96 h incubation, Monkey: undiluted monkey plasma, 37° C.
Method: as §2

not cleaved (human cathepsin G [1]): 100.0 ± 1.8 % intact probe after 24 h
not cleaved [2]: 100.3 ± 5.5 % intact probe after 96 h
not cleaved [3]: 99.2 ± 0.3 % intact probe after 24 h
not cleaved (monkey cynomolgus plasma): 98.8 ± 1.6 % intact probe after 96 h
not cleaved (human proteinase 3 [4]): 98.0 ± 1.1 % intact probe after 24 h
Substance: EGCit

not cleaved [3]: marginal or almost no degradation
Substance: GCit

Substance: Ac-Glu-Leu-Cit-PABC-sar-pyrene [probe 3c]
stability against human neutrophil elastase-mediated degradation (in words) [5]: marginal or almost no degradation

Substance: Ac-Glu-Ile-Cit-PABC-sar-pyrene [probe 3d]
stability against human neutrophil elastase-mediated degradation (in words) [5]: complete degradation

not cleaved [2]: 91.1 ± 1.1 % intact probe after 96 h
cleaved bond [3]: valine-citrulline
not cleaved (monkey cynomolgus plasma): 95.8 ± 1.8 % intact probe after 96 h
Substance: EVCit

Substance: Ac-Glu-(N-Me)Val-Cit-PABC-sar-pyrene [S1b]
stability against degradation mediated by neutrophil elastase or mouse plasma (in words) [5]: instability

cleaved bond [3]: valine-citrulline, major
Substance: VCit-PABC-pyrene

Substance: Ac-Glu-Ala-Cit-PABC-sar-pyrene [probe 3b]
stability against human neutrophil elastase-mediated degradation (in words) [5]: complete degradation
stability in undiluted BALB/c plasma (in words) [6]: improved stability compared to EVCit probe 2

Substance: Ac-Glu-Gly-Cit-PABC-sar-pyrene [EGCit 3a]
% intact probe, Neutrophil elastase [5]: 99.2 ± 0.3%
stability against human neutrophil elastase-mediated degradation (in words) [5]: marginal or almost no degradation
% intact probe, Proteinase 3 (human proteinase 3 [7]): 98.0 ± 1.1%
resistance to cleavage by human proteinase 3 (in words) (human proteinase 3 [7]): completely intact
% intact probe, Cathepsin G (human cathepsin G [8]): 100.0 ± 1.8%
resistance to cleavage by cathepsin G (in words) (human cathepsin G [8]; pyrene probes): completely intact
degradation in human plasma (in words) ([9]; pyrene probes): completely withstood degradation
% intact probe, 48 h incubation, Human [9]: 96.5%
% intact probe, 96 h incubation, Human [9]: 100.3%
degradation in monkey plasma (in words) ([10]; pyrene probes): completely withstood degradation
% intact probe, 48 h incubation, Monkey [10]: 98.7%
% intact probe, 96 h incubation, Monkey [10]: 98.8%
stability in undiluted BALB/c plasma (in words) [6]: improved stability compared to EVCit probe 2
% intact probe, 48 h incubation, Mouse [6]: 69.2%
% intact probe, 96 h incubation, Mouse [6]: 40.3%
% intact probe, 96 h incubation, Mouse ([6]; listed as EGCit probe 3a): 40%

Substance: Ac-Glu-Phe-Cit-PABC-sar-pyrene [S1a]
stability against degradation mediated by neutrophil elastase or mouse plasma (in words) [5]: instability

Substance: Ac-Glu-Val-(N-Me)Cit-PABC-sar-pyrene [EV(N-Me)Cit 3e]
% intact probe, Neutrophil elastase [5]: 99.0 ± 2.4%
stability against human neutrophil elastase-mediated degradation (in words) [5]: marginal or almost no degradation
% intact probe, Proteinase 3 (human proteinase 3 [7]): 84.4 ± 0.9%
resistance to cleavage by human proteinase 3 (in words) (human proteinase 3 [7]): partially degraded
% intact probe, Cathepsin G (human cathepsin G [8]): 99.6 ± 0.3%
% intact probe, 48 h incubation, Human [9]: 99.5%
% intact probe, 96 h incubation, Human [9]: 86.4%
% intact probe, 48 h incubation, Monkey [10]: 97.8%
% intact probe, 96 h incubation, Monkey [10]: 91.9%
stability in undiluted BALB/c plasma (in words) [6]: improved stability compared to EVCit probe 2
% intact probe, 48 h incubation, Mouse [6]: 37.8%
% intact probe, 96 h incubation, Mouse [6]: 12.0%

not cleaved [3]: marginal or almost no degradation
Substance: ELCit

Substance: Ac-Val-(N-Me)Cit-PABC-sar-pyrene [S1d]
stability against degradation mediated by neutrophil elastase or mouse plasma (in words) [5]: instability

not cleaved (human cathepsin G [1]): 99.6 ± 0.3 % intact probe after 24 h
not cleaved [3]: 99.0 ± 2.4 % intact probe after 24 h
not cleaved (monkey cynomolgus plasma): 91.9 ± 1.2 % intact probe after 96 h
Substance: EV(N-Me)Cit-PABC-pyrene

Substance: Ac-Gly-Cit-PABC-sar-pyrene [probe 3f]
stability against human neutrophil elastase-mediated degradation (in words) [5]: marginal or almost no degradation
stability in undiluted BALB/c plasma (in words) [6]: less stable than the EGCit probe 3a
